Reference: patent publication US20240344145A1, “PHARMACOGENOMICS SCORE TO MAKE DECISIONS ON THERAPY AUGMENTATION IN AML” (University of Florida Research Foundation, Incorporated, priority 2021, published 2024)

System: ara-C metabolic pathway genes
Assay: Association of ara-C pathway SNP genotypes with MRD1, EFS and OS in AML02 (logistic regression and Cox models; also within LDAC and HDAC arms)
Parameters: species or system human
Settings: within arm of AML02
Text: Genomic DNA from patients enrolled in the multi-site St. Jude AML02 trial was genotyped for 155 SNPs in 16 genes of relevance to ara-C pharmacology using sequenom iPlex platform that uses MALDI-TOF based chemistry at University of Minnesota, Biomedical Genomics Center. SNPs were selected based on previously reported studies. For SNPs lacking literature on genetic variation, SNPs were selected to capture LD blocks (European and African ancestry) on a gene. Of 155 SNPs, 1 SNP was excluded due to low call rate (<90%), 47 SNPs were excluded due to minimum allele frequency of less than 5%, 11 SNPs were excluded due to high LD (r^2>0.9) with other SNPs; two SNPs were excluded because of deviation from Hardy-Weinberg equilibrium. Genotype for the COG-AAML0531 cohort for the selected SNPs was obtained using sequenom platform or TaqMan genotyping assays, and for a few SNPs was extracted from the data available on Illumina 2.5 Omni array. Genotype calls from multiple platforms were confirmed across multiple samples randomly collected from the cohort.
SNP genotype groups in three different modes of inheritance (additive, dominant, and recessive) were tested for association with MRD1 using logistic regression models. Odds ratio (OR) and 95% confidence interval (CI) were calculated for each test. SNPs with association P-value<0.05 were considered significant. Cox-proportional hazard models were used to evaluate association of genotype groups with EFS or OS. Hazard ratio (HR) and 95% CI were calculated for each test. p-value<0.05 was considered statistically significant. Given initial risk group assignments are well-established prognostic factors associated with outcome, outcome association analysis of SNPs with and without adjusting for risk group was also performed to identify SNPs that are associated with outcome independent of risk group.
SNPs with p<0.15 in risk-adjusted univariate evaluation with clinical endpoints (MRD1, EFS, and OS) were tested for all possible combinations with a maximum of three SNPs per model in multivariable logistic regression models for association with MRD1 and Cox-proportional hazard models for association with EFS and OS. Analysis for up to 3 SNP combinations was restricted due to computational challenges as increasing the maximum number of SNPs per model drastically increases the number of models as 1000 permutations were run for each model. Models were ordered according to their Bayesian Information Criterion (BIC) and weight in favor of each model. One thousand permutation tests were performed for each model to determine statistical significance. The six unique SNPs from the most significant models for EFS and MRD1 were included in the development of the ACS10 score as described in the results section.
The multicenter AML02 clinical trial randomly assigned subjects to receive low dose ara-C (LDAC: 100 mg/m^2; n=91 patients) or high dose ara-C(HDAC: 3 g/m^2; n=75 patients) in combination with daunorubicin and etoposide as the first course of chemotherapy as described above in patient cohort section. Thus, the association of SNPs with outcome within each arm separately was also explored (Table 5).

[1] = rs4742 (DCTD, WT T, VAR C), MOI R
[2] = rs5841 (NME4, WT C, VAR T), MOI D
[3] = rs324148 (SLC29A1, WT C, VAR T), MOI A
[4] = rs407983 (NME4, WT G, VAR C), MOI A
[5] = rs507964 (SLC29A1, WT C, VAR A), MOI R
[6] = rs580032 (CDA, WT T, VAR G), MOI D
[7] = rs602950 (CDA, WT T, VAR C), MOI A
[8] = rs747199 (SLC29A1, WT C, VAR G), MOI D
[9] = rs818196 (CDA, WT G, VAR C), MOI D
[10] = rs1048977 (CDA, WT C, VAR T), MOI D
[11] = rs1138729 (RRM2, WT A, VAR G), MOI D
[12] = rs2072671 (CDA, WT A, VAR C), MOI A
[13] = rs2396243 (SLC29A1, WT G, VAR A), MOI D
[14] = rs3088062 (CMPK1, WT T, VAR C), MOI A
[15] = rs3743162 (SLC28A1, WT C, VAR T), MOI D
[16] = rs3829540 (NME3, WT G, VAR A), MOI D
[17] = rs3925058 (CMPK1, WT T, VAR C), MOI D
[18] = rs4247411 (SLC28A1, WT C, VAR T), MOI D
[19] = rs4271567 (SLC28A1, WT T, VAR A), MOI R
[20] = rs4643786 (DCK, WT T, VAR C), MOI R

Nc1ccn([C@@H]2O[C@H](CO)[C@@H](O)[C@@H]2O)c(=O)n1 [LDAC, cytarabine]
EFS HR (95% CI) [1]: 1.49 (0.93-2.4) | MRD1 OR (95% CI) [1]: 1.19 (0.57-2.46) | OS HR (95% CI) [1]: 1.96 (1.2-3.21) | EFS HR (95% CI) [2]: 0.94 (0.68-1.31) | MRD1 OR (95% CI) [2]: 0.7 (0.45-1.08) | OS HR (95% CI) [2]: 0.86 (0.58-1.27) | EFS HR (95% CI) [3]: 1.35 (0.85-2.13) | MRD1 OR (95% CI) [3]: 0.37 (0.17-0.78) | OS HR (95% CI) [3]: 1.14 (0.64-2.04) | EFS HR (95% CI) [4]: 1.36 (0.88-2.09) | MRD1 OR (95% CI) [4]: 0.92 (0.53-1.59) | OS HR (95% CI) [4]: 1.73 (1-2.98) | EFS HR (95% CI) [5]: 1.54 (1.04-2.29) | MRD1 OR (95% CI) [5]: 1.41 (0.76-2.62) | OS HR (95% CI) [5]: 1.1 (0.64-1.88) | EFS HR (95% CI) [6]: 0.86 (0.51-1.44) | MRD1 OR (95% CI) [6]: 1.16 (0.63-2.13) | OS HR (95% CI) [6]: 1.12 (0.65-1.9) | EFS HR (95% CI) [7]: 0.56 (0.33-0.96) | MRD1 OR (95% CI) [7]: 0.57 (0.3-1.08) | OS HR (95% CI) [7]: 0.68 (0.36-1.26) | EFS HR (95% CI) [8]: 0.88 (0.61-1.28) | MRD1 OR (95% CI) [8]: 1.18 (0.75-1.88) | OS HR (95% CI) [8]: 0.55 (0.3-1) | EFS HR (95% CI) [9]: 1.18 (0.85-1.64) | MRD1 OR (95% CI) [9]: 1.28 (0.82-2) | OS HR (95% CI) [9]: 1.09 (0.73-1.62) | EFS HR (95% CI) [10]: 1.48 (1.06-2.08) | MRD1 OR (95% CI) [10]: 1.21 (0.79-1.85) | OS HR (95% CI) [10]: 1.14 (0.77-1.69) | EFS HR (95% CI) [11]: 1.55 (1.11-2.18) | MRD1 OR (95% CI) [11]: 1.19 (0.73-1.94) | OS HR (95% CI) [11]: 1.41 (0.93-2.14) | EFS HR (95% CI) [12]: 0.58 (0.35-0.95) | MRD1 OR (95% CI) [12]: 0.57 (0.31-1.04) | OS HR (95% CI) [12]: 0.68 (0.38-1.23) | EFS HR (95% CI) [13]: 1.56 (1.12-2.16) | MRD1 OR (95% CI) [13]: 0.92 (0.59-1.43) | OS HR (95% CI) [13]: 1.59 (1.07-2.36) | EFS HR (95% CI) [14]: 1.66 (0.99-2.8) | MRD1 OR (95% CI) [14]: 2.37 (1.06-5.28) | OS HR (95% CI) [14]: 1.63 (0.89-3.01) | EFS HR (95% CI) [15]: 0.82 (0.56-1.19) | MRD1 OR (95% CI) [15]: 0.77 (0.48-1.23) | OS HR (95% CI) [15]: 1.07 (0.71-1.64) | EFS HR (95% CI) [16]: 1.23 (0.89-1.71) | MRD1 OR (95% CI) [16]: 1.15 (0.73-1.8) | OS HR (95% CI) [16]: 1.22 (0.82-1.82) | EFS HR (95% CI) [17]: 0.7 (0.51-0.97) | MRD1 OR (95% CI) [17]: 0.6 (0.38-0.95) | OS HR (95% CI) [17]: 0.76 (0.51-1.13) | EFS HR (95% CI) [18]: 1.05 (0.73-1.51) | MRD1 OR (95% CI) [18]: 0.94 (0.59-1.51) | OS HR (95% CI) [18]: 1.03 (0.67-1.59) | EFS HR (95% CI) [19]: 1 (0.69-1.46) | MRD1 OR (95% CI) [19]: 0.76 (0.46-1.28) | OS HR (95% CI) [19]: 1.12 (0.72-1.74) | EFS HR (95% CI) [20]: 2.15 (1.28-3.64) | MRD1 OR (95% CI) [20]: 2.34 (0.76-7.15) | OS HR (95% CI) [20]: 1.7 (0.92-3.11)
